In the NIST ThermoML archive (doi:10.1016/j.jct.2017.01.011):
Numbers after ± are expanded uncertainties.

Legend:
[1] = xn = mol fraction of the nth substance listed; conditions: 100 kPa, Liquid, x1 = 1; for speed of sound: Frequency=3 MHz, Single path-length method; for mass density: Vibrating tube method
[2] = 100 kPa, Liquid; for speed of sound: Frequency=3 MHz, Single path-length method; for mass density: Vibrating tube method

speed of sound ([1]; 283.15 K) [m/s]	mass density ([1]; 283.15 K) [kg/m3]	speed of sound ([1]; 293.15 K) [m/s]	mass density ([1]; 293.15 K) [kg/m3]	speed of sound ([1]; 303.15 K) [m/s]	mass density ([1]; 303.15 K) [kg/m3]	speed of sound ([1]; 313.15 K) [m/s]	mass density ([1]; 313.15 K) [kg/m3]	speed of sound ([2]; 283.15 K) [m/s]	mass density ([2]; 283.15 K) [kg/m3]	speed of sound ([2]; 293.15 K) [m/s]	mass density ([2]; 293.15 K) [kg/m3]	speed of sound ([2]; 303.15 K) [m/s]	mass density ([2]; 303.15 K) [kg/m3]	speed of sound ([2]; 313.15 K) [m/s]	mass density ([2]; 313.15 K) [kg/m3]	SMILES
1196.8 ± 4.1	798 ± 1	1162.3 ± 4.1	790 ± 1	1128.2 ± 4.1	781 ± 1	1094.5 ± 4.1	772 ± 1	–	–	–	–	–	–	–	–	CCO [ethanol] + OCC(O)CO
–	–	–	–	–	–	–	–	1942.3 ± 6.1	1267 ± 1	1922.9 ± 6.1	1261 ± 1	1901 ± 6.1	1255 ± 1	1879.3 ± 6.1	1248 ± 1	OCC(O)CO [glycerol]
1153.3 ± 4.1	801 ± 1	1119.6 ± 4.1	791 ± 1	1086.6 ± 4.1	782 ± 1	1054.2 ± 4.1	772 ± 1	–	–	–	–	–	–	–	–	CO [methanol] + OCC(O)CO
